Tested on: patients of the practice
Test: second study: questionnaire on cardiac events in patients of the practice treated with finasteride vs control group
Type: in vivo, human
Settings: 4 events over 242 patient-years; control 3.5%/yr.
Procedure: Finasteride was being administered at a dosage of a single oral 5 mg tablet a day. This is the same tablet used in treatment of BPH as disclosed in U.S. Pat. No. 5,175,155 and such dosage applies in the present invention. However, use of a 2 mg or 10 mg oral tablet is contemplated.
Two studies were undertaken to determine whether finasteride was, in fact, effective in lessening the incidence of heart disease and other complications of atherosclerosis.
In the second study patients of the practice were given a questionnaire. Various patients had been treated with finasteride for varying lengths of time. Only those on the drug for at least one year were considered. The average time on finasteride was 3 years. The number of cardiac events occurring in the patients taking finasteride was only 4 events over 242 patient-years. (1.6%/yr.) In the control group 26 events occurred in the 3 years prior over 732 patient-years. (3.5%/yr.)
The […] observed in cardiac events is believed to be significant. (90% Cl equal to 1.4% to 3.7%)

Compound: CC(C)(C)NC(=O)[C@H]1CC[C@H]2[C@@H]3CC[C@H]4NC(=O)C=C[C@]4(C)[C@H]3CC[C@]12C [finasteride, 4-azaandrost-1-ene-17-carboxamide, N-(1,1-dimethylethyl)-3-oxo-(5a 17B)-]
- cardiac events per patient-year: 1.6 %/yr.

From US20010048942A1, “Dutasteride to prevent and treat atherosclerosis” (priority 2000, published 2001)
